Consider 25 molecules from ChEMBL document CHEMBL1201862, “PubChem BioAssay data set” (2004).

Active and inactive are the calls of the source. Rule as the data show it, for most assays here: actives have a measured EC50 and inactives only a lower limit.

Test [1] addresses Luciferin 4-monooxygenase (Photinus pyralis, UniProt P08659). Put plainly: firefly luciferase enzyme inhibitors, dose response, biochemical, luminescence (AID 1891).
A short description of test [2]: Luminescence Cell-Based Dose Confirmation HTS to Identify Inhibitors of Platelet Dense Granule Release. [Related pubchem assays: 1663 (Primary HTS), 1678 (Summary of Project)]. In kind it is functional.
For test [3], the system named is Streptococcus sp. 'group A'. As to the kind of experiment: growth inhibition of control SK(-) GAS strain, dose response, counter-screen for streptokinase expression inhibitor project, luminescence, kanamycin, BacTiterGlo, confirmation (AID 1900). It counts as functional, organism-based. Background: The purpose of a counterscreen is to sort out artefacts and off-target activity.

For the next test, the target named is T1, Streptokinase A (Streptococcus pyogenes serotype M1, UniProt P10520).
T1 sequence (P10520 whole entry): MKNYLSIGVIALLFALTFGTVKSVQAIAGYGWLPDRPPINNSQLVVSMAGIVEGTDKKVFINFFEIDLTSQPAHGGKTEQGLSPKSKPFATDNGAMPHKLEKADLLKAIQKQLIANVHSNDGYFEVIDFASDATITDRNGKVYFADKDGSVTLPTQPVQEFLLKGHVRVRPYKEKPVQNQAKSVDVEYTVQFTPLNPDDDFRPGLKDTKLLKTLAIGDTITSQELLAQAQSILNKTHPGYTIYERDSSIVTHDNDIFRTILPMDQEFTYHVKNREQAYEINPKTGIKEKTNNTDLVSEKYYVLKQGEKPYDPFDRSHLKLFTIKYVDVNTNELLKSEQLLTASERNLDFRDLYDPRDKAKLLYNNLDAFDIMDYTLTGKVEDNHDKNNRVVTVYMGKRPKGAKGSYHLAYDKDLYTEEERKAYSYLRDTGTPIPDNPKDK
Put plainly: S. pyogenes streptokinase expression inhibitors, potency, dose response, plasminogen activation absorbance, OD405 (AID 1914).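 Also: secreted streptokinase activity via plasminogen activation per viability signal from cell pellet.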 It counts as functional, Streptococcus pyogenes M1 GAS.

The next test relates to Streptococcus. Put plainly: Group A Streptococcus viability loss, dose response, counter-screen for streptokinase expression inhibitor project, luminescence, BacTiterGlo (AID 1915).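 Also: potency for reduction of bacterial viability or growth.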 In kind it is functional, organism-based.
For the next test, the system named is INS1. Put plainly: beta cell apoptosis inhibitors, cytokine rescue, dose response, luminescence, retest (AID 449756).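 Also: cell death triggered by IL-1 beta plus TNF-alpha plus IFN-gamma mixture; protective hits raise ATP signal compared with cytokine alone wells.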 In kind it is functional, cell-based. The settings on record: Rattus norvegicus.
The target in test [4] is T2, RNA-binding protein pos-1 (Caenorhabditis elegans, UniProt G5EF15).
T2 sequence (G5EF15 whole entry): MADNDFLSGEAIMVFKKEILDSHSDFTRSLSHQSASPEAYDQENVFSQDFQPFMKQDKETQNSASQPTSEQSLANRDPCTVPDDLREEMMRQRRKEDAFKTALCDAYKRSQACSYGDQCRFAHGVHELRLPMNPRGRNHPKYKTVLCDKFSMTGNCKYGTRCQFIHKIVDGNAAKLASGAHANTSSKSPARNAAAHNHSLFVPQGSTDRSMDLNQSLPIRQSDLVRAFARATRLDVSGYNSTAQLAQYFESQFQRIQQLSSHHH
As to the kind of experiment: inhibitors of POS-1/mex-3 RNA binding, dose response, biochemical, fluorescence polarization (AID 1964).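 Also: purified POS-1 fused to maltose binding protein made in E. coli; potency of compounds blocking POS-1 binding to fluorescent RNA.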 On the technique in general: Polarisation of emitted light reports the rotation of a fluorescent probe.

For test [5], the target named is T3, Zinc finger protein mex-5 (Caenorhabditis elegans, UniProt Q9XUB2).
T3 sequence (Q9XUB2 whole entry): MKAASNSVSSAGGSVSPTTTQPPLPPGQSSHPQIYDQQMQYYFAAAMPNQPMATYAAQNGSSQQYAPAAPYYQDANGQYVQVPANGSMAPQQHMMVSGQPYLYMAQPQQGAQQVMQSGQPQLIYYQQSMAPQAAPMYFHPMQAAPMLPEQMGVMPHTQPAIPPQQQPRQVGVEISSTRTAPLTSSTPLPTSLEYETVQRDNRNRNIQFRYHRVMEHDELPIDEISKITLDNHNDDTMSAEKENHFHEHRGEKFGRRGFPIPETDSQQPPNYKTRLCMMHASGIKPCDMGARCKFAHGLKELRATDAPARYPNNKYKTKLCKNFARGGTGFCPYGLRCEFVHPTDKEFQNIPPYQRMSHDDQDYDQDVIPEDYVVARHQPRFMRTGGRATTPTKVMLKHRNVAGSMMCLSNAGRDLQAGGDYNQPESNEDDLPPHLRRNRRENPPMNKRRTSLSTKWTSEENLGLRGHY
Put plainly: MEX-5/TCR-2 RNA interaction inhibitors, dose response, biochemical, C. elegans, fluorescence polarization (AID 1960).

A short description of test [6]: Luminescence Cell-Based Dose Confirmation HTS to Identify Activators of 5'UTR Stem-Loop Driven Alpha-Synuclein mRNA Translation in H4 Neuroglioblastoma Cells. [Related pubchem assays: 1829 (Project Summary), 1814 (Primary HTS)]. In kind it is functional.
Test [7] in a line: Luminescence Cell-Based Dose Response HTS to Identify Activators of Luciferase Translation or Activity in H4 […] Cells. [Related pubchem assays: 1829 (Project Summary), 1814 (Primary HTS)]. In kind it is functional.
The next test relates to H4. Put plainly: Luminescence Cell-Based Dose Response HTS to Identify Activators of 5'UTR Stem-Loop Driven Prion Protein mRNA Translation in H4 Neuroglioblastoma Cells. [Related pubchem assays: 1829 (Project Summary), 1814 (Primary HTS)]. In kind it is functional. The settings on record: Homo sapiens.
Test [8] can be described thus: Luminescence Cell-Based Dose Retest to Confirm Inhibitors of Cancer Stem Cells. [Related pubchem assays (depositor defined):AID2717, AID2721]. In kind it is functional. The following applies: Homo sapiens.
For test [9], the target named is T4, Heat shock factor protein 1 (Mus musculus, UniProt P38532).
T4 sequence (P38532 whole entry): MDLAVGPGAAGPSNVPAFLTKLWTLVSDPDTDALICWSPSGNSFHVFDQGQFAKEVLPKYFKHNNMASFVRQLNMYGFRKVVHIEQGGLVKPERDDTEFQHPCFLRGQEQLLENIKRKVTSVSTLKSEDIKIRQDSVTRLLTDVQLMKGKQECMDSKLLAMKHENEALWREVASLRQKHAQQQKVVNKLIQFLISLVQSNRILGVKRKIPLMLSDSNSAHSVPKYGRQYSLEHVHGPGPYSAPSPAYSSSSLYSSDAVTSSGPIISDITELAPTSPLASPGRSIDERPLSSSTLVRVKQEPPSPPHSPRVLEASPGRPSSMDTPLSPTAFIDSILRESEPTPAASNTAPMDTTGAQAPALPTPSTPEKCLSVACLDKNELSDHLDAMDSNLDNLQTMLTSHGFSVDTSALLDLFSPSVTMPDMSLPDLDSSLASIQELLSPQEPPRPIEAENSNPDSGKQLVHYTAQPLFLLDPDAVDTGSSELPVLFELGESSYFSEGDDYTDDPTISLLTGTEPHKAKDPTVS
As to the kind of experiment: inhibition of MG132-induced HSE-luciferase signal, confirmation, cell-based, NIH3T3, luminescence, dose retest (AID 2382).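 Also: NIH3T3 fibroblasts with HSF1-driven luciferase reporter stressed by proteasome inhibitor MG132; luminescence from HSF1-driven luciferase expression after 8 hours of MG132 stress.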 It counts as functional.

The next test has as its target Cytochrome P450 2C9 (Homo sapiens, UniProt P11712).
In test [10] the target is T5, Rac GTPase-activating protein 1 (Homo sapiens, UniProt Q9H0H5).
T5 sequence (Q9H0H5 whole entry): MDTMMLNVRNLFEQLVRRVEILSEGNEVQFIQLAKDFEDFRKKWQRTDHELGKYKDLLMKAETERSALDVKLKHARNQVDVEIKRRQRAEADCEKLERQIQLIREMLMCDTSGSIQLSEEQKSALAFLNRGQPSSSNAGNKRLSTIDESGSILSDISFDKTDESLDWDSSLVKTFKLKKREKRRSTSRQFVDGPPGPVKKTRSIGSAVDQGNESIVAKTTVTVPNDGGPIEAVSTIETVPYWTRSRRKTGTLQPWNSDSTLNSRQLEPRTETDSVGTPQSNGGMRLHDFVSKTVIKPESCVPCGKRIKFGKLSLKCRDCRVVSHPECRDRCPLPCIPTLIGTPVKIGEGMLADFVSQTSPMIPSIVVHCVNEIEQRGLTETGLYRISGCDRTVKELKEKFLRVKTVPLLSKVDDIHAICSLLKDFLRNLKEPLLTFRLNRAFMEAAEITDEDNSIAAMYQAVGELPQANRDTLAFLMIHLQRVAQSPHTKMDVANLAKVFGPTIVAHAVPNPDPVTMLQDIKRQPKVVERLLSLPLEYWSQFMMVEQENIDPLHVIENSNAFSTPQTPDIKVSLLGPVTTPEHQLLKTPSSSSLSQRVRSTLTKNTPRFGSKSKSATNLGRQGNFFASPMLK
As to the kind of experiment: MgcRacGAP GTPase-activating activity inhibitors, confirmation, biochemical, ADP Hunter fluorescence, primary and confirmatory (AID 624330). It counts as functional.

Chain of Luciferin 4-monooxygenase (P08659 whole entry): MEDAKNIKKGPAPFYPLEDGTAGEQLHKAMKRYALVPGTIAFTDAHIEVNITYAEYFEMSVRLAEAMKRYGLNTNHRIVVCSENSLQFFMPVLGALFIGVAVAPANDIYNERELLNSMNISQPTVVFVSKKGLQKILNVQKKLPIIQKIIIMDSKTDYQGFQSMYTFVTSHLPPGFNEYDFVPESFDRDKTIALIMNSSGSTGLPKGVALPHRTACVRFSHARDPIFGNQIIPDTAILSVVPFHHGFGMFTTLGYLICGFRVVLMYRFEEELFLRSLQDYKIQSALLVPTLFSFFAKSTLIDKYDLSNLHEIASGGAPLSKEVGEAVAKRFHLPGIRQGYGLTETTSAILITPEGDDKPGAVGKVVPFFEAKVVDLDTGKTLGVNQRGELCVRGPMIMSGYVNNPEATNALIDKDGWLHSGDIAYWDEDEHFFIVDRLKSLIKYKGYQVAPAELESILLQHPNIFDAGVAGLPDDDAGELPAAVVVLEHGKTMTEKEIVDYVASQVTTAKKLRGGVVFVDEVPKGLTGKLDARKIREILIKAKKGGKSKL
Chain of Cytochrome P450 2C9 (P11712 whole entry): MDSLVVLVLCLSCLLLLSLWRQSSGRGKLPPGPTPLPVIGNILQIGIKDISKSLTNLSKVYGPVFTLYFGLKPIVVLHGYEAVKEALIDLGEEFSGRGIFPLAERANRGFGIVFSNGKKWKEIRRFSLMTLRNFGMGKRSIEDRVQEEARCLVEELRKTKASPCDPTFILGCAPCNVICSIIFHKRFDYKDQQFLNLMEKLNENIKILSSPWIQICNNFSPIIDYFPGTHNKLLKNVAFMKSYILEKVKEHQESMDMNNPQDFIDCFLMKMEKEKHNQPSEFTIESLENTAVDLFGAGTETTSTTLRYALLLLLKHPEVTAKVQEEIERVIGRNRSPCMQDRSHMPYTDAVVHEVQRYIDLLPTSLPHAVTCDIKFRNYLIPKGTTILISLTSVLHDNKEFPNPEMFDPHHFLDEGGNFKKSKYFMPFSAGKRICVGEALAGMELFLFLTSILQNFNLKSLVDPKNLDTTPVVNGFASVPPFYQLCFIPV

On to `Nc1cc(-c2ccccc2)nn1Cc1ccc(Cl)cc1`, for which the EC50 in test [1] and in [2] was > 112 µM (not active) in each case.
As to `CCc1sc(N(C(=O)Cc2ccccc2)c2ccc(F)cc2)nc1-c1ccccc1`, the values for the EC50 (in test [3]; at Streptokinase A; in the test with Streptococcus) were > 150 µM (not active), 11.8 µM (active) and > 150 µM (not active), respectively.
In the case of `Cc1cccc(NC(S)=Nc2ccc3c[nH]nc3c2)c1`, the EC50 in [1] and in [2] was > 112 µM (not active) throughout. Besides, the AC50 (commonly the midpoint of the concentration-response curve, whichever way the signal moves) in the test with INS1 is > 260 µM (inactive).
`CC(C)C[C@H](NC(=O)N1CC(=O)Nc2ccccc21)C(=O)N[C@H](C(=O)O)c1ccccc1`: the concentration for a half-maximal effect (EC50) (in test [3]; at Streptokinase A; with Streptococcus) was > 150 µM (not active) throughout.
With `COCCSc1ccccc1C(=O)Nc1ccc2c(c1)OCO2`, the EC50 in test [1] and in test [2] was > 112 µM (not active) each time.
On to `CC(C)C(=O)Nc1ccc(NC(=S)NC(=O)c2ccccc2F)cc1`, for which the EC50 in [1] and in [2] was > 112 µM (not active) each time.
For the molecule `COC(=O)c1ccccc1Oc1cc(C(F)(F)F)nc(-c2ccccn2)n1`, the EC50 in test [1] and in [2] was > 112 µM (not active) throughout.
As for `O=C(c1ccc(F)cc1)N1CCN(C2CCC(c3ccccc3)CC2)CC1` (stereo not given), the EC50 in [4] and in test [5] was > 300 µM (not active) in each case.
Regarding `CCCCn1c(CCCNC(=O)c2ccco2)nc2ccccc21`, the EC50 (in test [3]; at Streptokinase A; in the test with Streptococcus) was > 150 µM (not active) in each case.
For `CCOC(=O)CN1C(=O)C(O)=C(C(C)=O)C1c1ccc(F)cc1` (stereo not given), the EC50 in [1] and in [2] was > 112 µM (not active) each time.
Consider `COC(=O)/C(C#N)=C/c1c(Oc2cc(C)cc(C)c2)nc2c(C)cccn2c1=O`, for which the EC50 (usually the midpoint of the concentration-response curve) in test [4] was 104 µM (active); in test [5] it was > 300 µM (not active).
Turning to `Cc1ccc2cc(CN(Cc3cccs3)C(=O)c3ccco3)c3nnnn3c2c1C`, the results for the EC50 (in test [3]; at Streptokinase A; in the test with Streptococcus) were 2.28 µM (active), > 150 µM (not active) and 31.7 µM (active), respectively.
Take `Cc1ccc(C2CCN(C(=O)Nc3ccccc3)C2)cc1` (stereo not given): the EC50 in test [1] and in test [2] was > 112 µM (not active) each time.
For the molecule `O=C(C1CCCN(c2ncnc3c2nc2n3CCCCC2)C1)N1CCN(c2ccccc2)CC1` (stereo not given), the EC50 (in test [6]; in test [7]; in the test on H4) was > 120 µM (not active) throughout.
Turning to `CC(C)(C)c1cc(C(=O)NNc2cc(C(F)(F)F)ccc2Cl)n(Cc2ccccc2)n1`, the figures for the EC50 (in test [3]; at Streptokinase A; in the test on Streptococcus) were 3.24 µM (active), > 150 µM (not active) and 8.74 µM (active), respectively. In test [8], the AC50 is 3.81 µM (active).
As for `COc1ccc(NC(=O)CCl)cn1`, the EC50 in test [4] is 9.67 µM (active); in test [5], 8.06 µM (active).
`Clc1ccc(N2COC3c4cccc5cccc(c45)C32)cc1` (stereo not given): the EC50 is 17.4 µM (active) in test [3], 14.2 µM (active) at Streptokinase A and > 150 µM (not active) in the test on Streptococcus.
Turning to `Fc1ccc(C2=CC(c3ccco3)n3ncnc3N2)cc1` (stereo not given), the EC50 is 14.7 µM (active) in test [4] and 12.8 µM (active) in test [5].
`S=C(Nc1ccccc1Cl)N(CCCN1CCOCC1)Cc1ccco1`: the EC50 in test [1] and in test [2] was > 112 µM (not active) in each case.
Take `COCCNC(=O)C1Nc2ccc(OC(F)(F)F)cc2C2C=CCC12` (stereo not given): the EC50 in [4] and in test [5] was > 300 µM (not active) in each case.
For `CCc1ccc2[nH]c(O)c(N=Nc3nc(-c4ccccc4)cs3)c2c1`, the EC50 was 9.51 µM (active) in [3], > 195 µM (not active) in [9], > 150 µM (not active) on Streptokinase A and 27.3 µM (active) in the test on Streptococcus. Moreover, the AC50 on Cytochrome P450 2C9 was 39.8 µM (inconclusive).
As for `Cc1ccc(O)c(/C=N/NC(=O)Cc2ccc(Cl)cc2)c1`, the EC50 in test [3] was 3.25 µM (active); on Streptokinase A it was > 150 µM (not active); in the test with Streptococcus, 13.6 µM (active).
Take `COc1cc(/C=N/c2oc(-c3ccccc3)cc2C#N)ccc1O`: the EC50 in test [4] and in test [5] was > 300 µM (not active) in each case.
With `Nc1c(Cl)ncnc1N/N=C/c1ccc(O)cc1`, the EC50 was 7.55 µM (active) in test [1] and 0.779 µM (active) in test [2]. Moreover, the IC50 (usually the concentration at which inhibition is half-maximal) in test [10] was 16.5 µM (active).
Consider `CC(C)C(C(=O)Nc1nccs1)c1ccc(Cl)cc1` (stereo not given), for which the EC50 is 12.7 µM (active) in test [3], > 150 µM (not active) at Streptokinase A and > 150 µM (not active) in the test with Streptococcus.
